Laboratory results as given in ChEMBL document CHEMBL1201862, “PubChem BioAssay data set” (2004).
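Protocol summary: plate cells (96-well), add compound at 5 concentrations, incubate 48 h, interpolate endpoints linearly. GI50 = concentration required for 50% inhibition of growth.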 Activity calls are given as the source filed them. Rule as the data show it: active = GI50 up to about 1.1 µM and inactive = higher.

Assays:
Experiment in all cases: NCI tumour cell line growth inhibition, 48 h
A498 = system: A498
BT-549 = system: BT-549
CCRF-CEM = system: CCRF-CEM
COLO 205 = system: COLO 205
HCT-15 = system: HCT-15
HL-60 = system: HL-60
HOP-92 = system: HOP-92
HT-29 = system: HT-29
LOX IMVI = system: LOX IMVI
NCI-H23 = system: NCI-H23
NCI-H522 = system: NCI-H522
OVCAR-3 = system: OVCAR-3
RXF 393 = system: RXF 393
SK-MEL-2 = system: SK-MEL-2
SK-MEL-5 = system: SK-MEL-5
SK-OV-3 = system: SK-OV-3
SNB-75 = system: SNB-75
SW-620 = system: SW-620
TK-10 = system: TK-10
UACC-257 = system: UACC-257

Compound | GI50 (A498) | GI50 (BT-549) | GI50 (CCRF-CEM) | GI50 (COLO 205) | GI50 (HCT-15) [µM] | GI50 (HL-60) | GI50 (HOP-92) | GI50 (HT-29) | GI50 (LOX IMVI) | GI50 (NCI-H23) | GI50 (NCI-H522) | GI50 (OVCAR-3) | GI50 (RXF 393) | GI50 (SK-MEL-2) | GI50 (SK-MEL-5) | GI50 (SK-OV-3) | GI50 (SNB-75) | GI50 (SW-620) | GI50 (TK-10) | GI50 (UACC-257)
O=C(O)c1cccc(S(=O)(=O)NCCO)c1 | > 100 µM (inactive) | > 100 µM (inactive) | > 100 µM (inactive) | > 100 µM (inactive) | > 100 | > 100 µM (inactive) | > 100 µM (inactive) | > 100 µM (inactive) | > 100 µM (inactive) | > 100 µM (inactive) | > 100 µM (inactive) | > 100 µM (inactive) | > 100 µM (inactive) | > 100 µM (inactive) | > 100 µM (inactive) | > 100 µM (inactive) | > 100 µM (inactive) | > 100 µM (inactive) | > 100 µM (inactive) | > 100 µM (inactive)
O=C1N/C(=N\N=C\c2ccccc2)C(c2ccccc2)O1 (stereo not given) | 99.3 µM (inactive) | 33 µM (inactive) | 12.7 µM (inactive) | 40.9 µM (inactive) | 19.8 | 30.1 µM (inactive) | > 100 µM (inactive) | 53 µM (inactive) | 42.8 µM (inactive) | > 100 µM (inactive) | > 100 µM (inactive) | 27.4 µM (inactive) | 80 µM (inactive) | > 100 µM (inactive) | 66.8 µM (inactive) | > 100 µM (inactive) | < 0.01 µM (active) | 59.4 µM (inactive) | 24 µM (inactive) | 66.1 µM (inactive)
CC12CC3OC(=O)C1COC14OC5(C2C1=O)C(O)(CCC1C4CC2OC24CC=CC(=O)C14C)C(=O)OC35C (stereo not given) | 18.8 µM (inactive) | 2.64 µM (inactive) | 4.1 µM (inactive) | 10.3 µM (inactive) | 16.4 | 8.04 µM (inactive) | 21.8 µM (inactive) | 28.5 µM (inactive) | 11.3 µM (inactive) | 15.4 µM (inactive) | 5.6 µM (inactive) | 13.9 µM (inactive) | 3.99 µM (inactive) | 14.5 µM (inactive) | 3.88 µM (inactive) | 28.6 µM (inactive) | 76.7 µM (inactive) | 12.4 µM (inactive) | 13.6 µM (inactive) | 13 µM (inactive)
CN(C)CCNC(=O)c1cccc2nc3c4ccccc4c4ccccc4c3nc12 | 7 µM (inactive) | 2.65 µM (inactive) | 1.13 µM (inactive) | 3.89 µM (inactive) | 1.69 | 1.76 µM (inactive) | 7.82 µM (inactive) | 1.51 µM (inactive) | 1.64 µM (inactive) | 1.87 µM (inactive) | 2.71 µM (inactive) | 3.44 µM (inactive) | 2.06 µM (inactive) | 3.22 µM (inactive) | 3.37 µM (inactive) | 6.52 µM (inactive) | 2.52 µM (inactive) | 1.58 µM (inactive) | 5.38 µM (inactive) | 3.86 µM (inactive)
Cc1ccc(C(=O)C(Cl)C(Cl)c2ccc(C)cc2)cc1 (stereo not given) | 16.3 µM (inactive) | 3.78 µM (inactive) | 0.622 µM (active) | 2.07 µM (inactive) | 1.83 | 1.24 µM (inactive) | 2.4 µM (inactive) | 2.12 µM (inactive) | 1.87 µM (inactive) | 9.38 µM (inactive) | 2.52 µM (inactive) | 3.42 µM (inactive) | 7.46 µM (inactive) | 16.3 µM (inactive) | 2.34 µM (inactive) | 15.2 µM (inactive) | 8.22 µM (inactive) | 2.39 µM (inactive) | 2.99 µM (inactive) | 1.92 µM (inactive)
O=C(O)C1C2c3ccccc3C(c3ccccc32)C1C(=O)NCC1CC1 (stereo not given) | 78 µM (inactive) | 60 µM (inactive) | 31.2 µM (inactive) | 54.5 µM (inactive) | 48.3 | 24.8 µM (inactive) | 70.5 µM (inactive) | 71.6 µM (inactive) | 65.8 µM (inactive) | 47.9 µM (inactive) | 29.9 µM (inactive) | 46.8 µM (inactive) | 97.5 µM (inactive) | 91.6 µM (inactive) | 66.8 µM (inactive) | 56.2 µM (inactive) | 84.5 µM (inactive) | 50.2 µM (inactive) | 32.4 µM (inactive) | 19.1 µM (inactive)
O=C(c1ccccc1)C(Nc1ccc2ccccc2c1)c1ccccc1 (stereo not given) | 21.3 µM (inactive) | 32.1 µM (inactive) | 13.7 µM (inactive) | 17.6 µM (inactive) | 29 | 13.1 µM (inactive) | 41.7 µM (inactive) | 24.5 µM (inactive) | 35.3 µM (inactive) | 24.4 µM (inactive) | 6.98 µM (inactive) | 13.9 µM (inactive) | > 43.9 µM (inactive) | 14.2 µM (inactive) | 16.9 µM (inactive) | 40.7 µM (inactive) | 33.5 µM (inactive) | 27.7 µM (inactive) | 29 µM (inactive) | 15.3 µM (inactive)
COc1ccc(OC)c2c1C[C@@H]1C(C#N)N3[C@H](Cc4c(OC)ccc(OC)c4[C@@H]3C)C(=O)N1[C@H]2C (stereo not given in full) | 11.2 µM (inactive) | 1.97 µM (inactive) | 1.9 µM (inactive) | 1.84 µM (inactive) | 3.08 | 1.85 µM (inactive) | 2.06 µM (inactive) | 8.05 µM (inactive) | 2.44 µM (inactive) | 4.5 µM (inactive) | 1.68 µM (inactive) | 2.07 µM (inactive) | 1.83 µM (inactive) | 2.16 µM (inactive) | 1.75 µM (inactive) | 11.9 µM (inactive) | 1.08 µM (active) | 2.86 µM (inactive) | 3.57 µM (inactive) | 2.51 µM (inactive)
CCCCCCCCCCCCC1NC(=N)NC2(CCCO2)C1C(=O)OC (stereo not given) | 23.3 µM (inactive) | 4.3 µM (inactive) | 2.06 µM (inactive) | 3.03 µM (inactive) | 16.7 | 1.53 µM (inactive) | 5.09 µM (inactive) | 1.92 µM (inactive) | 1.69 µM (inactive) | 4.39 µM (inactive) | 3.45 µM (inactive) | 3.52 µM (inactive) | 3 µM (inactive) | 4.29 µM (inactive) | 5.47 µM (inactive) | 10 µM (inactive) | 3.61 µM (inactive) | 1.97 µM (inactive) | 4.79 µM (inactive) | 4.3 µM (inactive)
C=C1C(=O)OC2/C=C(\C)CC/C=C(\C)CC(OC(=O)/C(=C/CO)CO)[C@@H]12 (stereo not given in full) | 19 µM (inactive) | 12.1 µM (inactive) | 2.09 µM (inactive) | 2.2 µM (inactive) | 5.87 | 2.72 µM (inactive) | 4.93 µM (inactive) | 7.41 µM (inactive) | 16 µM (inactive) | 13.7 µM (inactive) | 1.75 µM (inactive) | 5.7 µM (inactive) | 7.19 µM (inactive) | 16.9 µM (inactive) | 13 µM (inactive) | 56 µM (inactive) | 12.3 µM (inactive) | 1.69 µM (inactive) | 5.51 µM (inactive) | 7.85 µM (inactive)
CNc1ccc(-c2nc3cc(C)ccc3o2)cc1 | 27.4 µM (inactive) | 45.8 µM (inactive) | > 100 µM (inactive) | > 100 µM (inactive) | > 100 | > 100 µM (inactive) | 84.9 µM (inactive) | > 100 µM (inactive) | > 100 µM (inactive) | > 100 µM (inactive) | 88.1 µM (inactive) | > 100 µM (inactive) | 22.4 µM (inactive) | > 100 µM (inactive) | > 100 µM (inactive) | 18.2 µM (inactive) | 14.7 µM (inactive) | > 100 µM (inactive) | 67.8 µM (inactive) | > 100 µM (inactive)
